Measured values taken from patent US20150089682A1, “ALS Inhibitor Herbicide Tolerant B. Napus Mutants” (priority 2012, published 2015).
Read-outs that look alike come from different tables or passages of the source.

How the values were obtained:
[1] = system: spring oilseed rape homozygous for HETO108 and HETO121; assay: Herbicide tolerance in the field, visible phytotoxicity; format: in vivo, Brassica napus
Description: (§1) Seeds of spring oilseed rape homozygous for HETO108 and HETO121 were sown in a field according to typical practical agricultural methods. The registered spring oilseed rape variety ABILITY served as a comparison. All plants were cultivated up to BBCH stage 14 (four true leaves of the oilseed rape plants). Afterwards, the herbicides mentioned in table 2 have been applied to the oilseed rape plants by using specific spray equipment for small plot applications. The water amount used was 200 L/ha.

[2] = system: spring oilseed rape variety ABILITY; assay: as above; format: in vivo, Brassica napus
Description: as §1

[3] = biological target: T1, Arabidopsis thaliana P197S-mutant ALS (Arabidopsis thaliana, UniProt P17597, E575Q/P197S); assay: biochemical; conditions: for Resistance Factor P197S: relative to WT, from measured pI50; for IC50: read-out: pI50 P197S (converted)
T1 construct: vector-encoded N-terminal fusion of pET-32a(+) (Trx/His/S tag by own knowledge); made in house; host or cells: Escherichia coli AD494
Method: (§2) Bacteria were grown at 37° C. in LB-medium containing 100 mg/1 carbenicillin and 25 mg/1 canamycin, induced with 1 mM isopropyl-β-D-thiogalactopyranoside at an OD600 of 0.6, cultivated for 16 hours at 18° C. and harvested by centrifugation. Bacterial pellets were resusupended in 100 mM sodium phosphate buffer pH 7.0 containing 0.1 mM thiamine-pyrophosphate, 1 mM MgCl2, and 1 μM FAD at a concentration of 1 gram wet weight per 25 ml of buffer and disrupted by sonification. The crude protein extract obtained after centrifugation was used for ALS activity measurements.
(§3) Assays were initiated by adding enzyme and terminated after 75 min incubation at 30° C. by the addition to 40 μl 0.5 M H2SO4. […] Reaction velocities were tiffed to the Michalis-Menten equation with the XLFit curve fitting program.

[4] = biological target: T2, Arabidopsis thaliana S653N-mutant ALS (Arabidopsis thaliana, UniProt P17597, E575Q/S653N); assay: biochemical; conditions: for Resistance Factor S653N: relative to WT, from measured pI50; for IC50: read-out: pI50 S653N (converted)
T2 construct: vector-encoded N-terminal fusion of pET-32a(+) (Trx/His/S tag by own knowledge); made in house; host or cells: Escherichia coli AD494
Method: as §2, §3

[5] = biological target: T3, Arabidopsis thaliana W574L-mutant ALS (Arabidopsis thaliana, UniProt P17597, E575Q/W574L); assay: biochemical; conditions: for Resistance Factor W574L: relative to WT, from measured pI50; for IC50: read-out: pI50 W574L (converted)
T3 construct: vector-encoded N-terminal fusion of pET-32a(+) (Trx/His/S tag by own knowledge); made in house; host or cells: Escherichia coli AD494
Method: as §2, §3

[6] = biological target: T4, mixture of P197S and W574L ALS enzymes (Arabidopsis thaliana, UniProt P17597); format: biochemical; conditions: for Resistance Factor P197S & W574L: relative to WT, calculated; for pI50 P197S & W574L: calculated for a mixture of equal activities of the two enzymes, pI50=3.0 used where measured <4
T4 construct: crude E. coli extract was used
Method: as §3
(§4) To characterize the response of a mixture of two different ALS enzymes to a given ALS inhibitor the following assumptions were made: • a inhibition is competitive and reversible • b. in the absence of inhibitor, equal activities of the ALS (mutant) enzymes 1 and 2 are present
(§5) Using experimentally determined pI50-values for various ALS-inhibiting herbicides, enzyme activities at different inhibitor concentrations were calculated (see Theory) for each ALS enzyme. Total ALS activity at any given inhibitor concentration is the sum of the activity of (mutant) enzyme 1 and (mutant) enzyme 2. If the experimentally determined pI50-value was <4, pI50=3.0 was used for the calculations. If the calculated pI50-value was 3.0, the pI50 was redefined as <4.

[7] = biological target: T5, mixture of S653N and W574L ALS enzymes (Arabidopsis thaliana, UniProt P17597); format: biochemical; conditions: for Resistance Factor S653N & W574L: relative to WT, calculated; for pI50 S653N & W574L: calculated for a mixture of equal activities of the two enzymes, pI50=3.0 used where measured <4
T5 construct: crude E. coli extract was used
Method: as §3, §4, §5

[8] = biological target: T6, Arabidopsis thaliana wild-type ALS (Arabidopsis thaliana, UniProt P17597, E575Q); assay: biochemical; conditions: measured, crude extract of E. coli expressed enzyme; for IC50: read-out: pI50 WT (converted)
T6 construct: vector-encoded N-terminal fusion of pET-32a(+) (Trx/His/S tag by own knowledge); made in house; host or cells: Escherichia coli AD494
Method: as §2, §3

[9] = measured, crude extract of E. coli expressed enzyme
[10] = Brassica napus, topical, 432 h, read-out: % phytotox

Molecule	Resistance Factor P197S [3]	Resistance Factor S653N [4]	Resistance Factor W574L [5]	Resistance Factor P197S & W574L [6]	Resistance Factor S653N & W574L [7]	IC50 [3, 9]	IC50 [8]	IC50 [4, 9]	IC50 [5, 9]	pI50 P197S & W574L [6]	pI50 S653N & W574L [7]	further results
COC(=O)c1ccccc1S(=O)(=O)NC(=O)N(C)c1nc(C)nc(OC)n1 [Tribenuron-methyl, tribenuron-methyl]												pest or weed control at 20 g/ha ([1]; Brassica napus, topical, 432 h, HETO108-HETO121, AI dose rate 20 gai/ha, field, 18 days after application, 0%=no phytotoxic effects, 100%=all plants killed, read-out: % phytotox): 5%; pest or weed control at 20 g/ha ([2]; Brassica napus, topical, 432 h, ABILITY, AI dose rate 20 gai/ha, field, 18 days after application, 0%=no phytotoxic effects, 100%=all plants killed, read-out: % phytotox): 99%
CCCOc1nn(C(=O)[N-]S(=O)(=O)c2ccccc2C(=O)OC)c(=O)n1C.[Na+] [Propoxycarbazone, propoxycarbazone-sodium]	158	25	316	200	100							% phytotox ([1]; HETO108-HETO121, AI dose rate 70 gai/ha, field, 18 days after application, 0%=no phytotoxic effects, 100%=all plants killed): 65%; % phytotox ([2]; ABILITY, AI dose rate 70 gai/ha, field, 18 days after application, 0%=no phytotoxic effects, 100%=all plants killed): 100%
COc1cc(OC)nc(Oc2cccc(Oc3nc(OC)cc(OC)n3)c2C(=O)O)n1 [Bispyribac-sodium, bispyribac-sodium]	4	13	398	40	79	79.4 nM	20 nM	251 nM	7940 nM	6.1	5.8	pest or weed control at 50 g/ha ([1]; Brassica napus, topical, 432 h, HETO108-HETO121, AI dose rate 50 gai/ha, field, 18 days after application, 0%=no phytotoxic effects, 100%=all plants killed, read-out: % phytotox): 75%; pest or weed control at 50 g/ha ([2]; Brassica napus, topical, 432 h, ABILITY, AI dose rate 50 gai/ha, field, 18 days after application, 0%=no phytotoxic effects, 100%=all plants killed, read-out: % phytotox): 100%
COc1ncc(F)c2nc(S(=O)(=O)Nc3c(F)cccc3F)nn12 [Florasulam, florasulam]	25	8	1585	200	126					5.5	5.7	pI50 P197S [3, 9]: 6.4; pI50 WT [8]: 7.8; pI50 S653N [4, 9]: 6.9; pI50 W574L [5, 9]: 4.6; % phytotox ([1]; HETO108-HETO121, AI dose rate 10 gai/ha, field, 18 days after application, 0%=no phytotoxic effects, 100%=all plants killed): 70%; % phytotox ([2]; ABILITY, AI dose rate 10 gai/ha, field, 18 days after application, 0%=no phytotoxic effects, 100%=all plants killed): 100%
CCOc1ccccc1OS(=O)(=O)NC(=O)Nc1nc(OC)cc(OC)n1 [Ethoxysulfuron, ethoxysulfuron]												pest or weed control at 180 g/ha ([1]; Brassica napus, topical, 432 h, HETO108-HETO121, AI dose rate 180 gai/ha, field, 18 days after application, 0%=no phytotoxic effects, 100%=all plants killed, read-out: % phytotox): 70%; pest or weed control at 180 g/ha ([2]; Brassica napus, topical, 432 h, ABILITY, AI dose rate 180 gai/ha, field, 18 days after application, 0%=no phytotoxic effects, 100%=all plants killed, read-out: % phytotox): 100%
COCc1cnc(C2=NC(C)(C(C)C)C(=O)N2)c(C(=O)O)c1 (centres unmarked) [Imazamox, imazamox]	1	>25	>25	20	>25	5010 nM	3980 nM	> 100000 nM	> 100000 nM	4.1	<4	pest or weed control at 40 g/ha ([1]; Brassica napus, topical, 432 h, HETO108-HETO121, AI dose rate 40 gai/ha, field, 18 days after application, 0%=no phytotoxic effects, 100%=all plants killed, read-out: % phytotox): 19%; pest or weed control at 40 g/ha ([2]; Brassica napus, topical, 432 h, ABILITY, AI dose rate 40 gai/ha, field, 18 days after application, 0%=no phytotoxic effects, 100%=all plants killed, read-out: % phytotox): 99%
COC(=O)c1ccccc1S(=O)(=O)NC(=O)Nc1nc(C)nc(OC)n1 [Metsulfuron-methyl, metsulfuron-methyl]	50	6	1000	251	79							% phytotox ([1]; HETO108-HETO121, AI dose rate 8 gai/ha, field, 18 days after application, 0%=no phytotoxic effects, 100%=all plants killed): 73%; % phytotox ([2]; ABILITY, AI dose rate 8 gai/ha, field, 18 days after application, 0%=no phytotoxic effects, 100%=all plants killed): 100%
CCS(=O)(=O)c1nc2ccccn2c1S(=O)(=O)NC(=O)Nc1nc(OC)cc(OC)n1 [Sulfosulfuron, sulfosulfuron]	1585	5	>3981	10000	158	39800 nM	25.1 nM	126 nM	> 100000 nM	3.6	5.4	pest or weed control at 10 g/ha ([1]; Brassica napus, topical, 432 h, HETO108-HETO121, AI dose rate 10 gai/ha, field, 18 days after application, 0%=no phytotoxic effects, 100%=all plants killed, read-out: % phytotox): 3%; pest or weed control at 10 g/ha ([2]; Brassica napus, topical, 432 h, ABILITY, AI dose rate 10 gai/ha, field, 18 days after application, 0%=no phytotoxic effects, 100%=all plants killed, read-out: % phytotox): 100%
COC(=O)c1ccc(C(F)(F)F)nc1S(=O)(=O)NC(=O)Nc1nc(OC)cc(OC)n1 [Flupyrsulfuron-methyl, flupyrsulfuron-methyl-sodium]												pest or weed control at 10 g/ha [1, 10]: 35%; pest or weed control at 10 g/ha [2, 10]: 100%
CCS(=O)(=O)c1cccnc1S(=O)(=O)NC(=O)Nc1nc(OC)cc(OC)n1 [Rimsulfuron, rimsulfuron]	13	1	316	63	16	398 nM	31.6 nM	20 nM	10000 nM	5.7	6.3	pest or weed control at 12.5 g/ha ([1]; Brassica napus, topical, 432 h, HETO108-HETO121, AI dose rate 12.5 gai/ha, field, 18 days after application, 0%=no phytotoxic effects, 100%=all plants killed, read-out: % phytotox): 68%; pest or weed control at 12.5 g/ha ([2]; Brassica napus, topical, 432 h, ABILITY, AI dose rate 12.5 gai/ha, field, 18 days after application, 0%=no phytotoxic effects, 100%=all plants killed, read-out: % phytotox): 100%
COC(=O)c1ccc(CNS(C)(=O)=O)cc1S(=O)(=O)NC(=O)Nc1nc(OC)cc(OC)n1 [Mesosulfaron-methyl, mesosulfuron-methyl]	79	16	31623	794	200							% phytotox ([1]; HETO108-HETO121, AI dose rate 15 gai/ha, field, 18 days after application, 0%=no phytotoxic effects, 100%=all plants killed): 30%; % phytotox ([2]; ABILITY, AI dose rate 15 gai/ha, field, 18 days after application, 0%=no phytotoxic effects, 100%=all plants killed): 99%
iodosulfuron-methyl-sodium [Iodosulfuron-methy-sodium]	158	10	631		79							% phytotox ([1]; HETO108-HETO121, AI dose rate 7 gai/ha, field, 18 days after application, 0%=no phytotoxic effects, 100%=all plants killed): 43%; % phytotox ([2]; ABILITY, AI dose rate 7 gai/ha, field, 18 days after application, 0%=no phytotoxic effects, 100%=all plants killed): 100%
